# From patent US20250257060A1, “OXADIAZOLE COMPOUND, PHARMACEUTICAL COMPOSITION COMPRISING SAME, AND USE THEREOF” (SUZHOU GENHOUSE BIO CO., LTD., priority 2022, published 2025)
# Legend:
# [1] = system: acetylation level of α-tubulin in HCT116 cells; test: Assay on acetylation level of α-tubulin, HCT116 cells; assay type: cell-based; details: Homo sapiens, HCT-116, 6 h
# Method: A375/HCT116/HCC827 cells at a logarithmic growth phase were taken, digested with a […] (trypsin), centrifuged, counted, and plated in a 96-well plate at an appropriate cell density (30,000 cells/well) at 100 µL/well, and an appropriate amount of PBS was added around the plate for water sealing. The next day, the cells were treated with the compounds at different concentrations (starting at 100 μM, 5-fold dilution, 9 concentration gradients). After 6 h, the medium was pipetted out and the cells were washed twice with 100 μL of PBST. The cells were then immobilized in 4% paraformaldehyde, and the plate was incubated at room temperature for 20 min. The stationary liquid was discarded and the cells were washed with PBST. 150 μL of special blocking buffer (containing 1% Triton-100) was added to each well for blocking at room temperature for 2 h, and the plate was washed with PBS to remove excess blocking buffer. α-tubulin (DM1A) mouse mAb and acetyl-α-tubulin (Lys40) (D20G3) XP rabbit mAb were diluted at a 1:2000 ratio with a blocking buffer containing 0.033% Triton-100. The dilutions were added to the 96-well plate and the plate was incubated overnight at 4° C. Meanwhile, a blank control group was set. The next day, the plate was washed twice with PBST. Secondary anti-mouse IgG (H+L) (DyLight™ 680 conjugate) and anti-rabbit IgG (H+L) (DyLight™ 800 conjugate) were diluted at a 1:2000 ratio with a blocking buffer containing 0.033% Triton-100. The dilutions were added to a 96-well plate and the plate was incubated at room temperature for 2 h. The plate was washed twice with PBST and once with PBS. Fluorescence signals at 700 nm and 800 nm were detected with a Li-COR Odyssey two-color near-infrared laser imager.
# [2] = Phase I metabolic stability in human liver microsomes (HLMs); assay type: in vitro ADME, humans; details: HLM; for Remaining rate (NCF = 60 min): buffer instead of NADPH regeneration system; for Remaining rate (T = 60 min): with NADPH; for CLint scaled at 1 µM / half-life at 1 M / microsomal CLint at 1 M: human, liver microsomes, pH 7.4; for microsomal CLint at 1 M: read-out: CLint (mic)
# Method: (§1) Phase I metabolic stability of the test compounds in liver microsomes of CD-1 mice (MLMs), Sprague-Dawley rats (RLMs), beagle dogs (DLMs), cynomolgus monkeys (CLMs), and humans (HLMs) was evaluated.
# (§2) The animal and human liver microsomes used in the test system were purchased from Xenotech, Corning, or other qualified suppliers and stored in a freezer at a temperature below −60° C. prior to use.
# (§3) The test samples and control compounds were separately incubated with animal and human liver microsomes at 37±1° C. for a period of incubation time up to 60 min. The samples were removed at the indicated time points, and the reaction was stopped with acetonitrile or other organic solvents containing an internal standard. After centrifugation, the resulting supernatants were assayed by liquid chromatography-tandem mass spectrometry (LC-MS/MS).
# (§4) 73.21 g of dipotassium hydrogenphosphate trihydrate and 10.78 g of potassium dihydrogenphosphate were dissolved in 4000 mL of ultrapure water. The solution was adjusted to pH 7.40±0.10 with 10% phosphoric acid or 1 M potassium hydroxide to make a final concentration of 100 mM.
# (§5) The test sample powder was prepared into a stock solution at a certain concentration with DMSO or other organic solvents, which was then further diluted with a proper organic solvent.
# (§6) Microsomes of each species were diluted into a 2× working solution with a 100 mM potassium phosphate buffer. The final concentration of the microsomes in the reaction system was 0.5 mg/mL.
# (§7) An appropriate amount of nicotinamide adenine dinucleotide phosphate (NADP) and isocitric acid (ISO) powder was weighed out, dissolved in a magnesium chloride solution, and shaken and mixed well. An appropriate amount of isocitrate dehydrogenase (IDH) was added, and the mixture was mixed well by gently turning upside down. The final concentrations in the reaction system were: 1 mM NADP, 1 mM magnesium chloride, 6 mM ISO, and 1 unit/mL IDH.
# (§8) Incubation was performed in a 96-well plate. Eight incubation plates were prepared and designated T0, T5, T15, T30, T45, T60, Blank60, and NCF60, respectively. The first 6 plates corresponded to reaction time points of 0, 5, 15, 30, 45, and 60 min, respectively. No test sample or control compound was added to the Blank60 plate, and samples were taken after 60 min of incubation. In the NCF60 plate, incubation was performed for 60 min using the potassium phosphate buffer instead of the NADPH regeneration system solution. Three replicates were made for samples in all conditions.
# (§9) The microsomes and the test sample or control compound were mixed, and then the incubation plates Blank60, T5, T15, T30, T45, and T60 except for TO and NCF60 were placed in a 37° C. water bath for pre-incubation for about 10 min. In the incubation plate TO, a stop solution was first added, followed by addition of the NADPH regeneration system working solution, and 98 μL of the potassium phosphate buffer was added to each sample well of the incubation plate NCF60 to initiate the reaction. After the pre-incubations of the incubation plates Blank60, T5, T15, T30, T45, and T60 were completed, 98 μL of the NADPH regeneration system working solution was added to each sample well to initiate the reaction. The reaction temperature was 37±1° C., the final volume of the reaction was 200 μL, and the reaction system included 0.5 mg/mL microsomes, […], 1 mM NADP, 6 mM ISO, and 1 unit/mL IDH.
# (§10) At 5 min, 15 min, 30 min, 45 min, and 60 min, a cold stop solution containing an internal standard was added to the reaction plate to stop the reaction.
# (§11) All the reaction plates after the reaction was stopped were shaken well and centrifuged at 3220×g at 4° C. for 20 min. After the supernatant was diluted according to a certain proportion, LC-MS/MS analysis was performed.
# (§12) Sample analysis was performed by the liquid chromatography-tandem mass spectrometry (LC-MS/MS) method without standard curves and quality control samples. […]
# [3] = Phase I metabolic stability in mouse liver microsomes (MLMs); assay type: in vitro ADME, CD-1 mice; details: MLM; for CLint scaled at 1 µM / half-life at 1 M / microsomal CLint at 1 M: CD-1, mouse, liver microsomes, pH 7.4; for microsomal CLint at 1 M: read-out: CLint (mic); for Remaining rate (NCF = 60 min): buffer instead of NADPH regeneration system; for Remaining rate (T = 60 min): with NADPH
# Method: as §1, §2, §3, §4, §5, §6, §7, §8, §9, §10, §11, §12
Compound,EC50 [1] [nM],Remaining rate (NCF = 60 min) [2] [%],Remaining rate (T = 60 min) [2] [%],CLint scaled at 1 µM [2] [mL/min/kg],half-life at 1 M [2] [h],microsomal CLint at 1 M [2] [µL/min/mg],CLint scaled at 1 µM [3] [mL/min/kg],half-life at 1 M [3] [h],microsomal CLint at 1 M [3] [µL/min/mg],Remaining rate (NCF = 60 min) [3] [%],Remaining rate (T = 60 min) [3] [%]
CC(F)(F)C(=O)N[C@@H]1CCCC[C@H]1N1Cc2ccc(-c3nnc(C(F)F)o3)cc2S1(=O)=O [Compound 1],262,83.4,79.0,< 8.6,> 2.42,< 9.6,< 38,> 2.42,< 9.6,97.6,79.8
O=C(N[C@@H]1CCCC[C@H]1N1Cc2ccc(-c3nnc(C(F)F)o3)cc2S1(=O)=O)C(F)F [Compound 2],140 ± 39.1,97.3,86.1,< 8.6,> 2.42,< 9.6,< 38,> 2.42,< 9.6,99.8,84.8
O=C(N[C@H]1[C@H](N2Cc3ccc(-c4nnc(C(F)F)o4)cc3S2(=O)=O)CCCC1(F)F)C(F)F [Compound 61],195,86.25,85.62,7.26,3.99,–,18.6,4.9,–,83.81,85.14
